experiment: gradient 5% acetonitrile 3 min, to 50% in 2 min, to 85% in 15 min, held 3 min, 100 µL/min; details: column: Zorbax Extend-C18 2.1 x 50 mm; eluents: water / acetonitrile, 0.1% formic acid
Summary of the method: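 Retention times of pure standards were taken from adduct peaks that were selected by computer and manually inspected. Over 3 months, mixtures of ~100 molecules were run by HPLC–quadrupole time-of-flight mass spectrometry in positive and negative ionization mode. The Zorbax Extend-C18 column (2.1 × 50 mm, 1.8 μm) ran at 100 μL/min in water and acetonitrile, each containing 0.1% formic acid, with 40 μL dead volume and 900 μL dwell volume.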

Row | Compound | RP-LC retention time
1 | CCc1ccc(N2C(=O)Nc3ccccc3C2(O)C(=O)NCCN(CC)CC)cc1 (configuration not stated) | 575 s
2 | O=C(Nc1ccc(F)cc1F)N1CC(Cc2nc(-c3cnccn3)no2)C1 | 690 s
3 | O=C(NCC(O)c1ccsc1)C1(c2ccccc2)CCOCC1 (configuration not stated) | 667 s
4 | O=C(Cc1cccc(F)c1)NC1(c2nc(-c3ccsc3)no2)CCCCC1 | 589 s
5 | Cc1cccc(C)c1Nc1c(-c2ccc(F)cc2)nc2cnccn12 | 901 s
6 | Cc1noc(-c2ccc(SCC(=O)Nc3ccc(S(N)(=O)=O)cc3)nc2)n1 | 705 s
7 | COc1cc(OC)c(NS(=O)(=O)c2cc(-c3c(C)noc3NC(C)=O)ccc2OC)cc1Cl | 792 s
8 | O=C(c1ccncc1)N1CCCn2nc(-c3cccs3)cc2C1 | 642 s
9 | COc1ccc(-c2nc3ccccc3c3nnc(SCc4cn5ccccc5n4)n23)cc1 | 742 s
10 | COc1ccc(NC(=O)C2(C)Oc3cccnc3N(C)C2=O)c(OC)c1 (configuration not stated) | 815 s
11 | CCc1nnc([C@@H]2CC(F)(F)CN2C(=O)c2cc(C)no2)o1 | 686 s
12 | COc1ccc(-c2nc3cc(C)ccn3c2NC(=O)CC(C)(C)C)cc1 | 681 s
13 | Cc1c(Cl)cccc1Nc1c(-c2ccc(Br)cc2)nc2cnccn12 | 1160 s
14 | O=C(NCc1cccc(Cl)c1)C1CC(=O)N(c2n[nH]c3cccc(F)c23)C1 (configuration not stated) | 749 s
15 | c1ccc(-n2ncc3cccnc32)cc1 | 624 s
16 | Cc1ccccc1Nc1c(-c2ccc(N(C)C)cc2)nc2cccc(C)n12 | 811 s
17 | COc1cccc(-c2noc(Cn3c(=O)n(-c4ccc(Cl)cc4)c(=O)c4sccc43)n2)c1 | 1050 s
18 | CCOc1ccc(-c2csc(NC(=O)CCCOc3ccc(Cl)cc3)n2)cc1 | 810 s
19 | COc1ccc(OC)c(CNC(=O)c2cn3ccc(C)cc3n2)c1 | 541 s

Further lines, results first:

Row | RP-LC retention time | Compound
20 | 698 s | CC(C)(C)C(=O)N1CCC(C(=O)N[C@@H]2CCCC[C@H]2NC(=O)c2ccc(F)cc2)CC1
21 | 700 s | Cn1ncc2c3ccccc3n(CC(=O)N3CCN(c4ncccn4)CC3)c2c1=O
22 | 1100 s | CCc1ccc(NC(=O)Cn2nc(N3CCC(C)CC3)c3ccccc3c2=O)cc1
23 | 654 s | CS(=O)(=O)N1CCCc2cc(C(=O)N3CCOCC3)ccc21
24 | 642 s | COc1ccc(N2CCN(c3nc(C(=O)NCCN4CCCCC4)cs3)CC2)cc1
25 | 983 s | Cc1cccc(N2CCN(S(=O)(=O)c3ccc4c(c3)CCCC(=O)N4)CC2)c1C
26 | 817 s | COc1ccc(C2C(C(=O)N3CCCC(C)C3)c3cc(OC)c(OC)cc3C(=O)N2C)cc1 (configuration not stated)
27 | 771 s | O=S(=O)(c1ccc(-c2nnc(C3CC3)o2)o1)N1CCCC1
28 | 641 s | COCC1CN(S(=O)(=O)c2cc(F)ccc2C)CC12CCNCC2 (configuration not stated)
29 | 726 s | CCc1nc2c(=O)n(CC(=O)N3CCCC(C)C3)nc(C)c2s1 (configuration not stated)
30 | 860 s | Cc1nc(-c2csc(S(=O)(=O)N3CCC(C(=O)NCCc4cccs4)CC3)c2)no1
31 | 705 s | CC(=O)Nc1cc2c(cc1SC(C)C)n(C)c(=O)n2C
32 | 665 s | Cc1nn(-c2ccc(N3CCCCC3)nn2)c(C)c1CCC(=O)NCCCc1ccco1
33 | 643 s | CCCc1noc(-c2ccnc(-n3ncc(C(=O)N4CCN(CC)CC4)c3C)c2)n1
34 | 738 s | CSc1ccc(CCNC(=O)c2ccc(CN3CC(=O)N4CCCCC4C3=O)cc2)cc1 (configuration not stated)
35 | 897 s | CCOC(=O)c1c(C)c(CCC(=O)N2CCCCCC2)n(C)c1C
36 | 1110 s | CCOC(=O)c1noc2ncnc(NCCc3ccc(Cl)cc3)c12
37 | 593 s | COc1ccc(C2(C(=O)N3CC(c4ncc(C)n4Cc4cccnc4)C3)CC2)cc1
